Active and inactive are the calls of the source.
Key:
[1] = target: Lysosomal acid glucosylceramidase (Homo sapiens, UniProt P04062); assay: Dose response cell-based high throughput screening assay to identify enhancers of beta-glucosidase activity. [Related pubchem assays: 784 ]; type: functional
[2] = HEp-2 cell cytotoxicity, dose response, cytotoxicity control for RSV inhibitor project, HTS (AID 2410); type: functional; details: human respiratory syncytial virus
[3] = inhibitors of firefly luciferase expression or activity, dose response, H4 neuroglioma cells, luminescence (AID 1990); type: functional, cell-based
[4] = Luminescence Cell-Based Dose Response HTS to Identify Inhibitors of 5'UTR Stem-Loop Driven Prion Protein mRNA Translation in H4 Neuroglioblastoma Cells. [Related pubchem assays: 1827 (Project Summary), 1813 (Primary HTS)]; type: functional
[5] = inhibitors of SNCA 5'UTR-driven reporter translation, confirmation, H4 neuroglioma cells, luminescence (AID 1988); type: functional, cell-based
Vasopressin V1a receptor = Vasopressin V1a receptor (Homo sapiens, UniProt P37288); assay: Counterscreen for Oxytocin Receptor (OXTR) agonists: Fluorescence-based cell-based high throughput dose response assay to identify agonists of the vasopressin 1 receptor (V1R). [Related pubchem assays: 2435 (Primary screen (OXTR agonists in singlicate)), 434991 (Counterscreen (V1R agonists in triplicate)), 2482 (Summary (OXTR agonists)) …; type: functional
Oxytocin receptor = Oxytocin receptor (Homo sapiens, UniProt P30559); assay: Fluorescence-based cell-based high throughput dose response assay for agonists of the Oxytocin Receptor (OXTR). [Related pubchem assays: 2435 (Primary screen (OXTR agonists in singlicate)), 434991 (Counterscreen (V1R agonists in triplicate)), 2482 (Summary (OXTR agonists)), 434963 (Confirmation screen (OXTR agonists in triplicate))]; type: functional
[6] = target: Beta-2 adrenergic receptor (Homo sapiens, UniProt P07550); assay: beta2AR agonists driving receptor internalization, dose response, cell-based, FAP fluorogen, flow cytometry, cherry pick 1 (AID 588763); type: functional
[7] = target: T1, Alkaline phosphatase, tissue-nonspecific isozyme (Homo sapiens, UniProt P05186)
T1 sequence (P05186 whole entry): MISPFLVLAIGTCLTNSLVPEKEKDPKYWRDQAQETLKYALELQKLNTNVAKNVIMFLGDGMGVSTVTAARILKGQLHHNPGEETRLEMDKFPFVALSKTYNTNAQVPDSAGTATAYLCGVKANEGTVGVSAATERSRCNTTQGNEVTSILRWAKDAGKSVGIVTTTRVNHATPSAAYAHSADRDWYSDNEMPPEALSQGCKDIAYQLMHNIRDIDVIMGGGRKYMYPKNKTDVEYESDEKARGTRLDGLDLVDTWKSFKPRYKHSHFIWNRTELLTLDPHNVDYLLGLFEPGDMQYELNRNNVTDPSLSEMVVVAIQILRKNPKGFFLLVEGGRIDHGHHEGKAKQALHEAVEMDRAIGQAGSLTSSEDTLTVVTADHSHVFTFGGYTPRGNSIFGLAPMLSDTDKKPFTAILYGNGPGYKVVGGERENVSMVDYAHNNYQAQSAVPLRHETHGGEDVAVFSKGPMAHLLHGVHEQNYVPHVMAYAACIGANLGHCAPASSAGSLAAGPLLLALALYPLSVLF

[8] = target: T2, Tyrosine-protein phosphatase non-receptor type 7 (Homo sapiens, UniProt P35236); type: functional
T2 sequence (P35236 whole entry): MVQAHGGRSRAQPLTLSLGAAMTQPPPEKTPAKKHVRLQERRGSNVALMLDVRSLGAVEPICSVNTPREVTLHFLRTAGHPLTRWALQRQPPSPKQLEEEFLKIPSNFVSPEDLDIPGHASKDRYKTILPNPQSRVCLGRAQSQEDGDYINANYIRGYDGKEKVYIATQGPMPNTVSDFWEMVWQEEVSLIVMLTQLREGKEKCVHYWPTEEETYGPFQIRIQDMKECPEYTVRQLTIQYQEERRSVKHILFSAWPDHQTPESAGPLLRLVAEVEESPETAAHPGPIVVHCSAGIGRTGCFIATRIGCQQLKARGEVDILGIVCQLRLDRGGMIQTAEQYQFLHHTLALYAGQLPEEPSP

[9] = target: Glyceraldehyde-3-phosphate dehydrogenase (Homo sapiens, UniProt P04406)
[10] = target: Heat shock cognate 71 kDa protein (Homo sapiens, UniProt P11142); assay: In Vitro Hsc70 Dose Response Fluorescence Polarization Assay. [Related pubchem assays: 1072 ]
Bcl-2-like protein 10 = Bcl-2-like protein 10 (Homo sapiens, UniProt Q9HD36); assay: Biochemical TR3 FP assay of Bcl-B inhibitor potency, EC50 (AID 1243); type: functional
[11] = target: Heat shock 70 kDa protein 1A (Homo sapiens, UniProt P0DMV8); assay: Hsp70 inhibitors, SAR follow-up, biochemical, fluorescence polarization (AID 1072)
[12] = target: T3, Dual specificity protein phosphatase 6 (Rattus norvegicus, UniProt Q64346)
T3 sequence (Q64346 whole entry): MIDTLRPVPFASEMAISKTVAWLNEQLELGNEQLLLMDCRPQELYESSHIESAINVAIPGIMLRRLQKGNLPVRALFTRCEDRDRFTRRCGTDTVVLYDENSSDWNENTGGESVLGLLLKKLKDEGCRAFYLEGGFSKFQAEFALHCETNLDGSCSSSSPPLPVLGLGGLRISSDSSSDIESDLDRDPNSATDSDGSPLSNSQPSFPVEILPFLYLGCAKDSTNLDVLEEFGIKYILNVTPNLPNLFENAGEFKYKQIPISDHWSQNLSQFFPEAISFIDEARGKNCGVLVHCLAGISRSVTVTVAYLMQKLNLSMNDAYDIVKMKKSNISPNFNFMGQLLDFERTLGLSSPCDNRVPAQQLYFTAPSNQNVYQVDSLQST

[13] = target: T3, Dual specificity protein phosphatase 6; type: functional
Cytochrome P450 2C9 = Cytochrome P450 2C9 (Homo sapiens, UniProt P11712); details: Potency
[14] = target: T4, Neuropeptides B/W receptor type 1 (Homo sapiens, UniProt P48145); assay: Fluorescence-based dose response cell-based high throughput screening assay to identify antagonists of the G-protein coupled receptor 7 (GPR7). [Related pubchem assays: 1952 (Screening assay (GPR7 antagonists).), 1880 (Summary AID.)]; type: functional
T4 sequence (P48145 whole entry): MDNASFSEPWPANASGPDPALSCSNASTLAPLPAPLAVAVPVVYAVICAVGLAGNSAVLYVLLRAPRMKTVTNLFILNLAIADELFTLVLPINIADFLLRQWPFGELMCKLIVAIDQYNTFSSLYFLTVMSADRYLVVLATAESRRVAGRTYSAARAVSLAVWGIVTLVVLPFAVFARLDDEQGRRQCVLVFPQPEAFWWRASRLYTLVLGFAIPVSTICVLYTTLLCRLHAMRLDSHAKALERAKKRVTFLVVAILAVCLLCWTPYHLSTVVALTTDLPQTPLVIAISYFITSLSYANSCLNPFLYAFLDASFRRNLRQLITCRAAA

[15] = target: Melanin-concentrating hormone receptor 1 (Homo sapiens, UniProt Q99705); assay: Fluorescence-based counterscreen for antagonists of the G-protein coupled receptor 7 (GPR7): cell-based high throughput dose response assay to identify antagonists of the melanin-concentrating hormone receptor 1 (MCHR1).; type: functional
[16] = target: T5, Rac GTPase-activating protein 1 (Homo sapiens, UniProt Q9H0H5); assay: MgcRacGAP GTPase-activating activity inhibitors, confirmation, biochemical, ADP Hunter fluorescence, primary and confirmatory (AID 624330); type: functional
T5 sequence (Q9H0H5 whole entry): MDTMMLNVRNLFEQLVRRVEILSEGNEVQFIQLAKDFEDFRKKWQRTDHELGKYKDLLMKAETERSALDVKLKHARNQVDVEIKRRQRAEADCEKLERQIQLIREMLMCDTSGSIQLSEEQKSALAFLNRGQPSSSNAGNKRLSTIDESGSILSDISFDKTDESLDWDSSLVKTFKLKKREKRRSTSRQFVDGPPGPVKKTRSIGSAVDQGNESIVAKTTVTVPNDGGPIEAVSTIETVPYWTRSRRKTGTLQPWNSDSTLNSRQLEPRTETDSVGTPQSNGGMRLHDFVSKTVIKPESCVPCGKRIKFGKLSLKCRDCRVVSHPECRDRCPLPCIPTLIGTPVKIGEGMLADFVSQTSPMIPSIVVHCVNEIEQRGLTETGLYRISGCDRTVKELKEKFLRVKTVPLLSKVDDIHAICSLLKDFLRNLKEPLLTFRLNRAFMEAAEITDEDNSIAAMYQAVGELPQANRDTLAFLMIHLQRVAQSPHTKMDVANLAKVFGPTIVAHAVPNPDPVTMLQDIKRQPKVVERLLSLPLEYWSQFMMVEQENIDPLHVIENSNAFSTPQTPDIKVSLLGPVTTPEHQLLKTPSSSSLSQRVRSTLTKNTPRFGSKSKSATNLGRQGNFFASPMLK

Wee1-like protein kinase = Wee1-like protein kinase (Homo sapiens, UniProt P30291); assay: G2/M cell cycle arrest in HeLa, late-stage follow-up, mechanism study for Wee1 degradation inhibitor project, FACS, panel member Wee1 Degradation (AID 2088)
[17] = target: G2/mitotic-specific cyclin-B1 (Homo sapiens, UniProt P14635); assay: G2/M cell cycle arrest in HeLa, late-stage follow-up, mechanism study for Wee1 degradation inhibitor project, FACS, panel member Cyclin B Degradation (AID 2088)
[18] = target: Neurotensin receptor type 1 (Homo sapiens, UniProt P30989); type: functional;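 note: Image-based confirmatory dose-response assay measuring agonist activity at NTR1; NTR1-expressing U2OS osteosarcoma cells imaged for beta-arrestin GFP spot formation; agonist potency where compounds increase beta-arrestin recruitment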
[19] = A549 cell cytotoxicity, dose response, cytotoxicity control, plate reader, cherry-pick, antagonist series (AID 743412); type: functional, cell-based
[20] = HepG2 cell cytotoxicity, dose response, cytotoxicity control, plate reader, cherry-pick, antagonist series (AID 743416); type: functional, cell-based
[21] = LGR2 antagonists, dose response, cell-based, HEK293, CRE-luciferase reporter, cherry pick, set 2 (AID 743343); type: functional;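 note: transfected cells were stimulated with diluted bursicon conditioned medium after compound addition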
[22] = MC4R antagonists, dose response, counter-screen for LGR2 antagonist project, cell-based, plate reader, cherry pick (AID 743444); type: functional;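 note: transfected HEK 293 cells stimulated with alpha-MSH peptide; potency of inhibitors of the alpha-MSH evoked signal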
[23] = HEK293 cell cytotoxicity, dose response, cytotoxicity control, plate reader, cherry-picked samples (AID 743446); type: functional, cell-based
[24] = inhibitors of intracellular T. cruzi replication, confirmation, NIH3T3 host cells, beta-gal luminescence (AID 2044); type: functional, cell-based;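 note: intracellular parasites grown in NIH/3T3 mouse fibroblasts as host cells; luminescent beta-galactosidase reporter signal from transgenic T. cruzi replicating inside host cells; inhibitors lower the luminescence signal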
[25] = cytotoxicity toward NIH3T3 fibroblasts, dose response, counter-screen, cell-based, ATP luminescence, mouse fibroblasts (AID 2010); type: functional;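 note: cells exposed to compound for about 90 hours before reading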
[26] = Cytotoxicity screening for potential Inhibitors of Bacterial Capsule Biogenesis. [Related pubchem assays (depositor defined):AID488970]; type: functional
Staphylococcus aureus = assay: Inhibitors of Bacterial Quorum Sensing Structure Activity Relationship (SAR) Analysis: Dose Response Assay. [Related pubchem assays: 700, 527 ]; type: functional, organism-based
Cytochrome P450 3A4 = Cytochrome P450 3A4 (Homo sapiens, UniProt P08684);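 note: CYP3A4 tested as one member of a cytochrome P450 panel screen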
Cytochrome P450 3A4, sequence (P08684 whole entry): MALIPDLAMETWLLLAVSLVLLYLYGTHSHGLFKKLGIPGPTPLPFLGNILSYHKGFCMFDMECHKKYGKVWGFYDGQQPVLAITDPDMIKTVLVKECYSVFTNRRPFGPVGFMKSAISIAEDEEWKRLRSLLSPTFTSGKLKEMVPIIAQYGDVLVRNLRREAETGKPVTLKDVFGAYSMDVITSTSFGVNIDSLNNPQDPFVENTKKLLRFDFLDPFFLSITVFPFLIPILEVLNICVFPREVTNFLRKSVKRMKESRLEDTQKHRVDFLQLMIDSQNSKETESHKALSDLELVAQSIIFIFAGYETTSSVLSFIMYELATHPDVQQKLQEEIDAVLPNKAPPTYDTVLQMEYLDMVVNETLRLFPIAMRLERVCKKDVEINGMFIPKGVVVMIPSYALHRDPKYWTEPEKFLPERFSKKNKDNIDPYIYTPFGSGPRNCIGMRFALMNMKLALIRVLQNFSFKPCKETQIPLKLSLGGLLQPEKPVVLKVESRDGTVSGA

G2/mitotic-specific cyclin-B1, sequence (P14635 whole entry): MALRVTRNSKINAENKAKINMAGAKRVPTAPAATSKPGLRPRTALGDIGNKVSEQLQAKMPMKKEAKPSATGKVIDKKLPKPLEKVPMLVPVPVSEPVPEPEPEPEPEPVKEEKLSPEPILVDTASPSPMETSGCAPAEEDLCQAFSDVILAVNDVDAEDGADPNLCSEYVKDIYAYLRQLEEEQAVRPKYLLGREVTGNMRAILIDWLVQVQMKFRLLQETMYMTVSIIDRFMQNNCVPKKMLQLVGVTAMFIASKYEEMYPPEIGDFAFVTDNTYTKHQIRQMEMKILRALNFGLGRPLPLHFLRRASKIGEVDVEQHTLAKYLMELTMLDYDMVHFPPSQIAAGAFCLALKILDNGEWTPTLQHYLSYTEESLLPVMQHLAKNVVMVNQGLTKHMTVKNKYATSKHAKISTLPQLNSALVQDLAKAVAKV
Cytochrome P450 2C9, sequence (P11712 whole entry): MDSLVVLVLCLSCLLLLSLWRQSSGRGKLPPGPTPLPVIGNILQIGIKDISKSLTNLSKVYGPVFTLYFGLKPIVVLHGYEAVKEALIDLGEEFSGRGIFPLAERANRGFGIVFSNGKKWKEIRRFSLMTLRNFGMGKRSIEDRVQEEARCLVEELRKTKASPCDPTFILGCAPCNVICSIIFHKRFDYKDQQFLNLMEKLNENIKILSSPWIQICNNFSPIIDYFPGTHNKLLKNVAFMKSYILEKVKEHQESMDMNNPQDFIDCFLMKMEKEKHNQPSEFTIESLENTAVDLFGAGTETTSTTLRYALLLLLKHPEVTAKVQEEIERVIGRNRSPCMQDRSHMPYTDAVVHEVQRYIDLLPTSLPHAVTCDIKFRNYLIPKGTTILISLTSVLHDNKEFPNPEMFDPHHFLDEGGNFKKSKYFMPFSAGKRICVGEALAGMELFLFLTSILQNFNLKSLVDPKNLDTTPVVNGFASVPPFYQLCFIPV
Bcl-2-like protein 10, sequence (Q9HD36 whole entry): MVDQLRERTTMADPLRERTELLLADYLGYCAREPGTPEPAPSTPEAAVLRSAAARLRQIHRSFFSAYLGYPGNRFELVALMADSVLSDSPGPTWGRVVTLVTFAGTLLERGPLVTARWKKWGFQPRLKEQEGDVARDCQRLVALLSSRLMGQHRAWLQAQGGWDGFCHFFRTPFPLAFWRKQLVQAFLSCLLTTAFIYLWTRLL
Heat shock cognate 71 kDa protein, sequence (P11142 whole entry): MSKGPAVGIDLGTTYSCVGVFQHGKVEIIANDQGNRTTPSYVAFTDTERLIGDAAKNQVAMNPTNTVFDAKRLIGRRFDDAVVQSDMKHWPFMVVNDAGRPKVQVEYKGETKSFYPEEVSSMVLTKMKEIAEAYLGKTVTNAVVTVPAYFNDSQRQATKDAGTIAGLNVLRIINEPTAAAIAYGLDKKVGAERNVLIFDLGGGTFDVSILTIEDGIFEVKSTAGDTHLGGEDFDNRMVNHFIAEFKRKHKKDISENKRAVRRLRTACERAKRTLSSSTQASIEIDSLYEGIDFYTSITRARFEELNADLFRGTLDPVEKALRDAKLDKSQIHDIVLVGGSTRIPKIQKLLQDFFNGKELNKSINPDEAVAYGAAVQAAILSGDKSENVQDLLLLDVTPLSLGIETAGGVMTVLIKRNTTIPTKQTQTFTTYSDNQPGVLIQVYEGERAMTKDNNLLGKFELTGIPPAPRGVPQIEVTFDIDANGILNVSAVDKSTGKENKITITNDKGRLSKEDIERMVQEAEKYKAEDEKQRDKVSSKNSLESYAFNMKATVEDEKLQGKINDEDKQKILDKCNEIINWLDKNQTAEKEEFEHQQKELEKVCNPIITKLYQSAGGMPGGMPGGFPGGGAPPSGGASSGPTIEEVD
Melanin-concentrating hormone receptor 1, sequence (Q99705 whole entry): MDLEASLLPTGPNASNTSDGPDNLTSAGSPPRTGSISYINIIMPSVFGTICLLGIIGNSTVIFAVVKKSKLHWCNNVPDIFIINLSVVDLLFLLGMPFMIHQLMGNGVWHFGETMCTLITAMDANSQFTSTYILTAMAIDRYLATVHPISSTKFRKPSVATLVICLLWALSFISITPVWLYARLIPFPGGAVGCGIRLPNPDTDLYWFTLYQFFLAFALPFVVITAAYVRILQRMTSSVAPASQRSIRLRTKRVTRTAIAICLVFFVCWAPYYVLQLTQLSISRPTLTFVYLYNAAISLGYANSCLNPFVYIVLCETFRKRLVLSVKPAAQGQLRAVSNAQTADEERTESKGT
Lysosomal acid glucosylceramidase, sequence (P04062 whole entry): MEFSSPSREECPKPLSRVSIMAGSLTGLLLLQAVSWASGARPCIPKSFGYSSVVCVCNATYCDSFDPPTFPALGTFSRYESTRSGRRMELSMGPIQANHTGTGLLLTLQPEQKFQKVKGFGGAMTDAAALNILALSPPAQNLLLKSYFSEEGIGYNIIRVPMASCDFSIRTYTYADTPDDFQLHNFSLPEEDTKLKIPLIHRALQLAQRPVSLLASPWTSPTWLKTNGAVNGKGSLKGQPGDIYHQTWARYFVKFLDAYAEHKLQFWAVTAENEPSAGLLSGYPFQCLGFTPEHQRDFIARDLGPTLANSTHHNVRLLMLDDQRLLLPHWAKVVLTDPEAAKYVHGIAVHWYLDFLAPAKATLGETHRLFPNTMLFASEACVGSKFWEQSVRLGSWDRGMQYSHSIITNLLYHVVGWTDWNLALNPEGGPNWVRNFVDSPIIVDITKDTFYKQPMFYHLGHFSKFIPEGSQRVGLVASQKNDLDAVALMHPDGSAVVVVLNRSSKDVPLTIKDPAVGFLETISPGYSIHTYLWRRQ
Oxytocin receptor, sequence (P30559 whole entry): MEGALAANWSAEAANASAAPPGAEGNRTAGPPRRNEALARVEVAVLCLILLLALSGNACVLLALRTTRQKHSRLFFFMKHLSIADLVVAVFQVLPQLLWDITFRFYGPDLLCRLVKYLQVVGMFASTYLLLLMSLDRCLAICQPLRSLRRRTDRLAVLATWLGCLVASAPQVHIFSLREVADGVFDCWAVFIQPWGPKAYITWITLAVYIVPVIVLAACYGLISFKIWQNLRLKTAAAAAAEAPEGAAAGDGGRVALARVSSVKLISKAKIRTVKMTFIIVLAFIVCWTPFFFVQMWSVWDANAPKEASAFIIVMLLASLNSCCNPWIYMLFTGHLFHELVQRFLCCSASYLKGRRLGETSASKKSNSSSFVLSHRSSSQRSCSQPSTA
Vasopressin V1a receptor, sequence (P37288 whole entry): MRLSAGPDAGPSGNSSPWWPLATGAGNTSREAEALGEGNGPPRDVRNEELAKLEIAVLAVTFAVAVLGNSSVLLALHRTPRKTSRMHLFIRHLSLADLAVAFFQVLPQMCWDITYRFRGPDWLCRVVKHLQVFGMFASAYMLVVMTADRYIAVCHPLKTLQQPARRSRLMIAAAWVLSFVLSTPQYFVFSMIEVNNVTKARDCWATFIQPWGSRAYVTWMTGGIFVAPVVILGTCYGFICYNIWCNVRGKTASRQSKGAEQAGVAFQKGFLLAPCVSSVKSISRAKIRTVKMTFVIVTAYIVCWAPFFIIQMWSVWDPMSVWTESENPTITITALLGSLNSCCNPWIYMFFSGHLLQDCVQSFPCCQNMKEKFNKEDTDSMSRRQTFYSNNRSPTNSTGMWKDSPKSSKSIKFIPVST
Neurotensin receptor type 1, sequence (P30989 whole entry): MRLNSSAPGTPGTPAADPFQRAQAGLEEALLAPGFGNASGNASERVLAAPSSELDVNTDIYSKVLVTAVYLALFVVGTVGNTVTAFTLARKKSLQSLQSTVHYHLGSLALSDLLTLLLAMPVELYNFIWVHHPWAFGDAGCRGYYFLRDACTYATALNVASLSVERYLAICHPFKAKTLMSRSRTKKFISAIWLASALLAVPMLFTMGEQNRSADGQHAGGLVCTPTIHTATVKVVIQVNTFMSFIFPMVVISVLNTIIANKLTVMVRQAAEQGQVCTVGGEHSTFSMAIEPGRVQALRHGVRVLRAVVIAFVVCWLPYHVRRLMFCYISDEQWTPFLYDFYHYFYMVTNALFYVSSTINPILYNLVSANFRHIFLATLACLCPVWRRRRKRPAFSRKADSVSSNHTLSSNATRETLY
Beta-2 adrenergic receptor, sequence (P07550 whole entry): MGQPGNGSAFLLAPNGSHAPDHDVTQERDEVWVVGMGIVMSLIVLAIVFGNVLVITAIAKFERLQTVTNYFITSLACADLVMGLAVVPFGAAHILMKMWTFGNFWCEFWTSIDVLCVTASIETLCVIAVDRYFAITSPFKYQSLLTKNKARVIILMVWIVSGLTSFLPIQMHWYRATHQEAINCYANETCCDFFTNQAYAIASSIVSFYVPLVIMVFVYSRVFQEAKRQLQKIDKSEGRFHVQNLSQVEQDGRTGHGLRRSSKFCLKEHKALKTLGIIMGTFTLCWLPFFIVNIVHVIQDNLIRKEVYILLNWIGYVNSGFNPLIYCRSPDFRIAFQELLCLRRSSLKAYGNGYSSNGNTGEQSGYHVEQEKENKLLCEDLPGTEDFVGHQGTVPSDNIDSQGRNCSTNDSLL

Question: Which EC50 [1] does the source give for `CC(C)(C)NC(=O)CSc1nncn1NCc1ccccc1` here?
Answer: > 50 µM (not active)

Question: Which CC50 [2] does the source give for `COc1ccc(CCNCC(O)Cn2c3ccccc3c3ccccc32)cc1OC` (stereo not drawn) here?
Answer: 13.7 µM (active)

Question: What about the EC50 [3] of the same compound?
Answer: 8.76 µM (active)

Question: And the EC50 [4]?
Answer: > 120 µM (not active)

Question: What about the EC50 [5] of the same compound?
Answer: > 120 µM (not active)

Question: And the EC50 (Vasopressin V1a receptor)?
Answer: 12.7 µM (not active)

Question: And the EC50 (Oxytocin receptor)?
Answer: 18.8 µM (not active)

Question: What about the EC50 [6] of the same compound?
Answer: 12.5 µM (inactive)

Question: For `C=CCNC(=S)NNC(=O)C(CCC(C)C)CC(C)O` (stereo not drawn), which EC50 [7] is on record?
Answer: 43.5 µM (active)

Question: With `CC(=O)Nc1ccc2c(c1)C1C=CCC1C(C(=O)O)N2` (stereo not drawn) as the compound, how does the IC50 [8] read?
Answer: 21 µM (active)

Question: What about the IC50 [9] of the same compound?
Answer: > 100 µM (not active)

Question: What about the IC50 [10] of the same compound?
Answer: > 100 µM (not active)

Question: And the EC50 (Bcl-2-like protein 10)?
Answer: 4.44 µM (active)

Question: And the IC50 [11]?
Answer: 35.2 µM (active)

Question: And the IC50 [12]?
Answer: > 100 µM (inactive)

Question: What about the IC50 [13] of the same compound?
Answer: > 100 µM (inactive)

Question: For `C/C=C/OC(=O)NC(c1ccccc1)[C@]1(C(C)=O)CCOC1=O` (stereo partly drawn), which AC50 (Cytochrome P450 2C9) is on record?
Answer: 0.794 µM (inconclusive)

Question: With `CN(C)c1ccc(Nc2ccc([N+](=O)[O-])cn2)cc1` as the compound, how does the IC50 [14] read?
Answer: > 43.8 µM (not active)

Question: And the IC50 [15]?
Answer: > 43.8 µM (not active)

Question: What about the IC50 [16] of the same compound?
Answer: 36.4 µM (active)

Question: Which results are given for `Cc1cc(O)nc(-n2nc(C)cc2NC(=O)c2ccc(F)cc2)n1`?
Answer: EC50 (Wee1-like protein kinase): > 16.6 µM (active); EC50 [17]: > 49.7 µM (inactive)

Question: Which EC50 [18] does the source give for `COc1ccc2sc(-c3ccc(S(C)(=O)=O)cc3)c(C#CCO)c2c1` here?
Answer: 26.6 µM (inactive)

Question: What about the AC50 [19] of the same compound?
Answer: 10.6 µM (active)

Question: What about the AC50 [20] of the same compound?
Answer: 24.4 µM (active)

Question: And the AC50 [21]?
Answer: 25 µM (active)

Question: And the AC50 [22]?
Answer: 30.1 µM (active)

Question: What about the AC50 [23] of the same compound?
Answer: 16.8 µM (active)

Question: Which EC50 [24] does the source give for `COc1cc(/C=N/N=C(N)N)ccc1OCc1ccccc1Cl` here?
Answer: 0.447 µM (active)

Question: What about the EC50 [25] of the same compound?
Answer: > 60 µM (not active)

Question: What about the CC50 [26] of the same compound?
Answer: 6.19 µM (active)

Question: For `Cc1cccc(Nc2ccccc2C(=O)O)c1C` [MEFENAMIC ACID], which IC50 (Staphylococcus aureus) is on record?
Answer: 1.34 µM (active)

Question: And the AC50 (Cytochrome P450 3A4)?
Answer: inconclusive
